Assay: displacement of tritiated calcium acetylhomotaurinate from a preparation of rat brain section
Type: binding
Conditions: in vitro, displacement of titiated calcium acetylhomotaurinate
Description: In in vitro tests, it has furthermore been shown that these compounds have the ability to displace titiated calcium acetylhomotaurinate from a preparation of rat brain section.

IC50 [µM] | SMILES
42 | CC(C)CC(=O)NCCCS(=O)(=O)O [Example 14, magnesium 3-(3-(methyl)butanoylamino)propanesulphonate]
46.9 | CC(C)(C)C(=O)NCCCS(=O)(=O)O [Example 1, calcium 3-(2-2-(dimethyl)propanoylamino)propanesulphonate]
28.9 | CC(C)C(=O)NCCCS(=O)(=O)O [Example 3, magnesium 3-(2-(methyl)propanoylamino)propanesulphonate]
93 | CC(=O)NC(C)CCS(=O)(=O)O (centres unmarked) [Example 17, calcium 3-(acetylamino)-3-methylpropanesulphonate]
49.5 | CC(C)(C)C(=O)NCCCS(=O)(=O)O [Example 15, magnesium 3-(2,2-(dimethyl)propanoylamino)propanesulphonate]

From patent publication US6265437A, “Aminoalkanesulphonic acid derivatives, their preparation and their use as medicaments” (LIPHA, priority 2000, dated 2001)
